Data: PubChem BioAssay (NCI)
Where “and” joins values, the source holds several entries; their conditions need not be identical. Equal entries are not always repeated.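 In this assay, cells in 96-well plates receive the compound at five concentrations for 48 hours. Endpoints are linearly interpolated between the surrounding concentrations. GI50: concentration for 50% inhibition of growth. TGI: total growth inhibition.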

Columns and labels:
Test in all cases: NCI tumour cell line growth inhibition, 48 h
OVCAR-8 ovarian = tested on: OVCAR-8 ovarian
TK-10 renal = tested on: TK-10 renal
HCC-2998 colon = tested on: HCC-2998 colon
NCI-H460 lung = tested on: NCI-H460 lung
U251 CNS = tested on: U251 CNS
MOLT-4 leukemia = tested on: MOLT-4 leukemia
PC-3 prostate = tested on: PC-3 prostate
MDA-MB-231 breast = tested on: MDA-MB-231 breast
SW-620 colon = tested on: SW-620 colon
EKVX NSCLC = tested on: EKVX NSCLC

## COc1ccc(-c2ccc(-c3ccc(C(=N)N)s3)s2)cc1
OVCAR-8 ovarian
  GI50: 0.219 µM
  TGI: 0.5 µM
TK-10 renal
  GI50: 0.175 µM
  TGI: 0.337 µM
HCC-2998 colon
  GI50: 0.273 µM
  TGI: 0.699 µM
NCI-H460 lung
  GI50: 0.192 µM
  TGI: 0.364 µM
U251 CNS
  GI50: 0.179 µM
  TGI: 0.337 µM
MOLT-4 leukemia
  GI50: 0.315 µM
  TGI: 0.849 µM
PC-3 prostate
  GI50: 0.167 µM
  TGI: 0.318 µM
MDA-MB-231 breast
  GI50: 0.186 µM
  TGI: 0.371 µM
SW-620 colon
  GI50: 0.18 µM
  TGI: 0.353 µM

## COc1cc2c(c(OC)c1OC)-c1ncc3cc4c(cc3c1C2)OCO4
OVCAR-8 ovarian
  GI50: 13.9 µM
  TGI: 36.9 µM
TK-10 renal
  GI50: 26.2 µM
  TGI: 67.3 µM
HCC-2998 colon
  GI50: 17.4 µM
  TGI: 48.1 µM
NCI-H460 lung
  GI50: 15.5 µM
  TGI: 38.2 µM
U251 CNS
  GI50: 21.6 µM
  TGI: 54.2 µM
EKVX NSCLC
  GI50: 15.6 µM
  TGI: 51.7 µM
PC-3 prostate
  GI50: 34.7 µM
  TGI: > 100 µM
MDA-MB-231 breast
  GI50: 13.8 µM
  TGI: 88.8 µM
SW-620 colon
  GI50: 18.6 µM
  TGI: 60.5 µM

## COc1cc(C(=O)N2CCN(c3ncccn3)CC2)c(N)cc1OCc1ccccc1
OVCAR-8 ovarian
  GI50: > 100 µM
  TGI: > 100 µM
TK-10 renal
  GI50: > 100 µM
  TGI: > 100 µM
HCC-2998 colon
  GI50: > 100 µM
  TGI: > 100 µM
NCI-H460 lung
  GI50: > 100 µM
  TGI: > 100 µM
U251 CNS
  GI50: > 100 µM
  TGI: > 100 µM
MOLT-4 leukemia
  GI50: 81.6 µM
  TGI: > 100 µM
PC-3 prostate
  GI50: > 100 µM
  TGI: > 100 µM
MDA-MB-231 breast
  GI50: > 100 µM
  TGI: > 100 µM
SW-620 colon
  GI50: > 100 µM
  TGI: > 100 µM

## CC(=O)O[C@H]1CCC2[C@@H]3CCC4Nc5[nH]ncc5C[C@]4(C)C3CC[C@@]21C (stereo partly specified)
OVCAR-8 ovarian
  TGI: > 100 µM
TK-10 renal
  TGI: > 100 µM
HCC-2998 colon
  TGI: 79.7 µM
NCI-H460 lung
  TGI: > 100 µM
U251 CNS
  TGI: > 100 µM
EKVX NSCLC
  TGI: > 100 µM
MOLT-4 leukemia
  TGI: 58.6 µM
SW-620 colon
  TGI: > 100 µM

## O=S(=O)(c1ccccc1)C1CN2OC1(S(=O)(=O)c1ccccc1)CC2c1ccc(Br)cc1 (stereo unspecified)
OVCAR-8 ovarian
  TGI: > 100 µM
TK-10 renal
  TGI: > 100 µM
HCC-2998 colon
  TGI: > 100 µM
NCI-H460 lung
  TGI: > 100 µM
U251 CNS
  TGI: > 100 µM
EKVX NSCLC
  TGI: > 100 µM
MOLT-4 leukemia
  TGI: > 100 µM
SW-620 colon
  TGI: > 100 µM

## COc1ncc(-c2ccc3ncnc(Nc4cccc(Cl)c4)c3c2)cc1NS(=O)(=O)C1CC1
OVCAR-8 ovarian
  GI50: 2.18 µM
  TGI: > 100 µM
HCC-2998 colon
  GI50: > 100 µM
  TGI: > 100 µM
U251 CNS
  GI50: 4.75 µM
  TGI: > 100 µM
PC-3 prostate
  GI50: > 100 µM
  TGI: > 100 µM
MDA-MB-231 breast
  GI50: 3.38 µM
  TGI: > 100 µM
SW-620 colon
  GI50: > 100 µM
  TGI: > 100 µM

## CC(C)C(=O)NS(=O)(=O)c1ccccc1
OVCAR-8 ovarian
  TGI: > 100 µM
TK-10 renal
  TGI: > 100 µM
HCC-2998 colon
  TGI: > 100 µM
NCI-H460 lung
  TGI: > 100 µM
U251 CNS
  TGI: > 100 µM
EKVX NSCLC
  TGI: > 100 µM
MOLT-4 leukemia
  TGI: > 100 µM
SW-620 colon
  TGI: > 100 µM

## CN1C(=O)/C(=C/c2c(Cl)n(C)c3ccccc23)c2ccccc21
OVCAR-8 ovarian
  GI50: 5.49 µM
TK-10 renal
  GI50: 9.52 µM and 1.38 µM
  TGI: 2.67 µM
NCI-H460 lung
  GI50: 6.17 µM and 2.84 µM
  TGI: > 100 µM
U251 CNS
  GI50: 3.7 µM and 1.73 µM
  TGI: 3.16 µM
EKVX NSCLC
  GI50: 2.11 µM
  TGI: 6.03 µM
MOLT-4 leukemia
  GI50: 1.88 µM and 0.245 µM
  TGI: 0.756 µM
PC-3 prostate
  GI50: 2.67 µM
MDA-MB-231 breast
  GI50: 1.99 µM
  TGI: 8.59 µM
SW-620 colon
  GI50: 5.07 µM

## c1ccc2nc3c(nc2c1)sc1ccccc13
TK-10 renal
  TGI: 39.3 µM
HCC-2998 colon
  TGI: > 100 µM
NCI-H460 lung
  TGI: 43.6 µM
U251 CNS
  TGI: 34.1 µM
EKVX NSCLC
  TGI: 96.2 µM
MOLT-4 leukemia
  TGI: > 100 µM
MDA-MB-231 breast
  TGI: > 100 µM
SW-620 colon
  TGI: > 100 µM

## CN[C@@H](C)[C@@H](NC)c1ccccc1
OVCAR-8 ovarian
  TGI: > 100 µM
TK-10 renal
  TGI: > 100 µM
HCC-2998 colon
  TGI: > 100 µM
NCI-H460 lung
  TGI: > 100 µM
U251 CNS
  TGI: 2.9 µM
EKVX NSCLC
  TGI: > 100 µM
MOLT-4 leukemia
  TGI: > 100 µM
SW-620 colon
  TGI: > 100 µM

## COc1cc(OC)c(/C=C/c2c3ccccc3cc[n+]2C)c(OC)c1
OVCAR-8 ovarian
  GI50: 2.27 µM
  TGI: 12.4 µM
TK-10 renal
  GI50: 3.27 µM
  TGI: 23.1 µM
HCC-2998 colon
  GI50: 1.65 µM
  TGI: 14.7 µM
NCI-H460 lung
  GI50: 1.82 µM
  TGI: 8.83 µM
U251 CNS
  GI50: 1.1 µM
  TGI: 14.1 µM
MOLT-4 leukemia
  GI50: 3.1 µM
  TGI: 32.8 µM
PC-3 prostate
  GI50: 0.943 µM
  TGI: > 37.9 µM
MDA-MB-231 breast
  GI50: 3.46 µM
  TGI: 31.4 µM
SW-620 colon
  GI50: 2.12 µM
  TGI: 14.2 µM

## O=C(O)c1ccc(OCc2ccccc2)c(Cl)c1
OVCAR-8 ovarian
  TGI: > 100 µM
TK-10 renal
  TGI: > 100 µM
NCI-H460 lung
  TGI: > 100 µM
U251 CNS
  TGI: > 100 µM
EKVX NSCLC
  TGI: > 100 µM
MOLT-4 leukemia
  TGI: > 100 µM
PC-3 prostate
  TGI: > 100 µM
MDA-MB-231 breast
  TGI: > 100 µM
SW-620 colon
  TGI: > 100 µM

## COC(=O)/C=C/c1c(CC=C(C)C)ncn1C
OVCAR-8 ovarian
  TGI: > 100 µM
TK-10 renal
  TGI: > 100 µM
HCC-2998 colon
  TGI: > 100 µM
NCI-H460 lung
  TGI: > 100 µM
U251 CNS
  TGI: > 67.1 µM
EKVX NSCLC
  TGI: > 100 µM
MOLT-4 leukemia
  TGI: > 100 µM
SW-620 colon
  TGI: > 100 µM

## S=c1[nH]c(=S)c2nnn(-c3ccccc3)c2[nH]1
OVCAR-8 ovarian
  TGI: > 100 µM
TK-10 renal
  TGI: > 100 µM
HCC-2998 colon
  TGI: > 100 µM
NCI-H460 lung
  TGI: > 100 µM
U251 CNS
  TGI: > 100 µM
EKVX NSCLC
  TGI: > 100 µM
MOLT-4 leukemia
  TGI: > 100 µM
SW-620 colon
  TGI: > 100 µM

## O=CN1CCN(CC(O)CN2CCCCC2)CC1 (stereo unspecified)
OVCAR-8 ovarian
  TGI: > 100 µM
TK-10 renal
  TGI: > 100 µM
U251 CNS
  TGI: > 100 µM
EKVX NSCLC
  TGI: > 100 µM
MOLT-4 leukemia
  TGI: > 100 µM
PC-3 prostate
  TGI: > 100 µM
MDA-MB-231 breast
  TGI: > 100 µM
SW-620 colon
  TGI: > 100 µM

## CC(C)C(=O)Nc1nc2c(ncn2C2OC(CO)C(O)C2O)c(=O)[nH]1 (stereo unspecified)
OVCAR-8 ovarian
  TGI: > 100 µM
TK-10 renal
  TGI: > 100 µM
HCC-2998 colon
  TGI: > 100 µM
NCI-H460 lung
  TGI: > 100 µM
U251 CNS
  TGI: > 100 µM
EKVX NSCLC
  TGI: > 100 µM
MOLT-4 leukemia
  TGI: > 100 µM
SW-620 colon
  TGI: > 100 µM

## Cc1cc(C)c(NC(=O)c2sc3nc4c(cc3c2N)CN(Cc2ccccc2)CC4)c(C)c1
OVCAR-8 ovarian
  GI50: 4.72 µM
  TGI: > 100 µM
TK-10 renal
  GI50: 5.06 µM
  TGI: > 100 µM
HCC-2998 colon
  GI50: 5.33 µM
  TGI: 38.4 µM
NCI-H460 lung
  GI50: 3.29 µM
  TGI: 16.3 µM
U251 CNS
  GI50: 4.35 µM
  TGI: 24.2 µM
MOLT-4 leukemia
  GI50: 4.15 µM
  TGI: > 100 µM
PC-3 prostate
  GI50: 3.13 µM
  TGI: > 100 µM
MDA-MB-231 breast
  GI50: 5.75 µM
  TGI: 58.9 µM
SW-620 colon
  GI50: 2.6 µM
  TGI: 17.1 µM

## Cc1nc(-[n+]2nc(-c3ccncc3)nn2-c2ccccc2)sc1C
OVCAR-8 ovarian
  TGI: > 100 µM
TK-10 renal
  TGI: 99.1 µM
HCC-2998 colon
  TGI: > 100 µM
U251 CNS
  TGI: > 100 µM
EKVX NSCLC
  TGI: > 100 µM
MOLT-4 leukemia
  TGI: > 100 µM
PC-3 prostate
  TGI: > 100 µM
MDA-MB-231 breast
  TGI: > 100 µM
SW-620 colon
  TGI: > 100 µM

## COC(=O)/C=C1\CCC(C)O1 (stereo unspecified)
OVCAR-8 ovarian
  TGI: > 100 µM
TK-10 renal
  TGI: > 100 µM
HCC-2998 colon
  TGI: > 100 µM
NCI-H460 lung
  TGI: > 100 µM
U251 CNS
  TGI: > 100 µM
EKVX NSCLC
  TGI: > 100 µM
MOLT-4 leukemia
  TGI: > 100 µM
SW-620 colon
  TGI: > 100 µM

## O=C1NC(=NCCc2cccc(Cl)c2)S/C1=C\c1ccc2ncccc2c1
OVCAR-8 ovarian
  GI50: > 25 µM
  TGI: > 25 µM
TK-10 renal
  GI50: > 25 µM
  TGI: > 25 µM
HCC-2998 colon
  GI50: > 25 µM
  TGI: > 25 µM
NCI-H460 lung
  GI50: > 25 µM
  TGI: > 25 µM
U251 CNS
  GI50: > 25 µM
  TGI: > 25 µM
MOLT-4 leukemia
  GI50: > 25 µM
  TGI: > 25 µM
PC-3 prostate
  GI50: > 25 µM
  TGI: > 25 µM
MDA-MB-231 breast
  GI50: > 25 µM
  TGI: > 25 µM
